Data published in patent US8461122B2, “Derivatives of morphine-6-glucuronide, preparation method thereof and use of same in therapeutics” (Sanofi, priority 2008, dated 2013).
Where two headings read alike, the source gives them in different places.

Tested on: male Swiss mice
Conditions: tail-flick; for ED50 60 min. post-administration: Table 2 (sc); for Duration of action / % MPE max: subcutaneous
Procedure: Tests consisting in measuring the in vivo activity of the compounds of the invention on a nociceptive reflex response were performed. In this approach, the latency of the animal's nociceptive reflex response is measured as a pain indicator.
The analgesic activity was determined by means of the “tail-flick” test in male Swiss mice (Iffa Credo). This test is based on the spontaneous nociceptive reflex of removal of the animal's tail caused by a painful heat stimulus (infrared source). The “tail-flick” test (D'Amour-Smith test, 1941, Pharmacol. Exp. Ther.; 72: 74-79) consists, after administering a product, in placing a mouse's tail at the focal point of the infrared source so as to produce a nociceptive heat stimulus (surface temperature of about 55-60° C.). The mouse's reaction time (RT) (latency between the moment when the light beam is switched on and the moment when the mouse removes its tail) was measured in duplicate at different times ranging from 20 minutes to 120 minutes after administration of the product. The heat intensity is regulated such that this removal reflex is between 0.5 and 3.5 seconds in the control animals, and arbitrarily represents the criterion for minimum analgesia (0%). Two reaction time measurements were taken before administration of the product for each mouse, to establish a baseline measurement time. A maximum time of 8 seconds was chosen as the maximum reaction time so as not to induce tissue damage by burning the animals, and arbitrarily represents the criterion for maximum analgesia (100%). The reaction time is increased by the analgesics relative to a control animal not receiving any treatment. The products were administered subcutaneously and orally at doses of between 1.25 and 30 mg/kg (expressed as salt).
The percentage of analgesic activity (% MPE) is determined by the following formula: % MPE=(RTpost-administration−RTpre-administration)*100/(RTmax−RTpre-administration)

[1] = dose 10 mg/kg (expressed as salt)
[2] = dose 1.25 mg/kg (expressed as salt)

| Compound | ED50 60 min. post-administration [mg/kg] | Duration of action (dose 10 mg/kg) | % MPE max [1] | ED50 at 60 minutes (oral, 60 minutes) | percentage of maximum analgesic activity (% MPE max index) (oral, dose 10 mg/kg) [%] | Duration of action (dose 1.25 mg/kg) | % MPE max [2] | Duration of action (dose 5 mg/kg) | % MPE max (dose 5 mg/kg (expressed as salt)) |
| --- | --- | --- | --- | --- | --- | --- | --- | --- | --- |
| Morphin-6-yl 5-C-(tetrazol-5-yl)-αβ-D-xylopyranoside trifluoroacetate [Compound 1] | 10 | >120 (10) minutes | 50 (10) % |  |  |  |  |  |  |
| Cc1nnc(C2O[C@H](O[C@H]3C=C[C@H]4[C@H]5Cc6ccc(O)c7c6[C@@]4(CCN5C)[C@H]3O7)[C@H](O)[C@@H](O)[C@@H]2O)o1.O=C(O)C(F)(F)F (stereo partly drawn) [Compound 4, Morphin-6-yl 5-C-(2-methyl-1,3,4-oxadiazol-5-yl)-α-D-xylopyranoside trifluoroacetate] | 8 | 90 (10) minutes | 65 (10) % |  |  |  |  |  |  |
| Cc1nnc(C2O[C@@H](O[C@H]3C=C[C@H]4[C@H]5Cc6ccc(O)c7c6[C@@]4(CCN5C)[C@H]3O7)[C@H](O)[C@@H](O)[C@@H]2O)o1.O=C(O)C(F)(F)F (stereo partly drawn) [Compound 5, Morphin-6-yl 5-C-(2-methyl-1,3,4-oxadiazol-5-yl)-β-D-xylopyranoside trifluoroacetate] | <1.25 |  |  | less than 2.5 mg/kg | 78 | >120 (1.25) minutes | 100 (1.25) % |  |  |
| Morphin-6-yl 5-C-(2-methyl-1,3,4-oxadiazol-5-yl)-α/β-D-xylopyranoside trifluoroacetate [Compound 3] | 3.2 |  |  |  |  |  |  | >120 (5) minutes | 100 (5) % |
| CN1CC[C@]23c4c5ccc(O)c4O[C@H]2[C@@H](O[C@@H]2O[C@H](c4nn[nH]n4)[C@@H](O)[C@H](O)[C@H]2O)C=C[C@H]3[C@H]1C5.O=C(O)C(F)(F)F [Compound 2, Morphin-6-yl 5-C-(tetrazol-5-yl)-β-d-xylopyranoside trifluoroacetate] | <1.25 |  |  |  |  | >120 (1.25) minutes | 100 (1.25) % |  |  |
